What all share (assay type): cell-based
In assay [1] the test system is Wnt target genes in MM1S cells. The experiment in a line: qRT-PCR of Wnt/β-catenin target genes. The note with it: MM1S (FIG. 19A), 10 μM. On the procedure: To measure the effects of vehicle, SAH-BCL9B, and SAH-BCL9MUT on the expression of Wnt/β-catenin target genes, including VEGF, in Colo320 (FIG. 18) and MM1S (FIG. 19) cell lines, quantitative PCR (qRT-PCR) analysis was performed. RNA was extracted with TRIzol Reagent (Invitrogen) according to the manufacturer's protocol. Total RNA (2 μg) was reverse transcribed (SuperScript VILO cDNA synthesis kit, Invitrogen) and qPCR was performed using an Applied Biosynthesis 7500 Real-time PCR system. PCR primers were designed as below: […]
Analysis of target genes was conducted in quadruplicate using POWER SYBR Green Master Mix (Applied Biosystems) as previously described (M. Mani et al., Cancer Res 69, 7577 (2009)). Transcripts levels were normalized to β-actin expression. These experiments were repeated three times.
(Quantitative PCR measures a nucleic acid by following its amplification.)

The subject of a further assay is Colo320 cells. The assay is described as follows: Cell proliferation, [3H]thymidine uptake. The note with it: 5 μM, 24 h. On the procedure: (§1) Cell proliferation assays were performed as described (Sukhdeo, K. et al. Proc Natl Acad Sci USA 104, 7516-21 (2007)). Cell viability was measured using the CellTiter-Glo assay (Promega) according to the manufacturer's instructions. Apoptosis was evaluated by activated caspase-3 and PARP western blotting. See results in FIG. 3A-FIG. 3F, FIG. 13, and FIG. 20.

Assay [2] concerns MM1S cells. The assay is described as follows: Cell proliferation, [3H]thymidine uptake. The note with it: 5 μM. On the procedure:
as §1

Assay [3] has as its system MM1S cells. The assay is described as follows: Combination with doxorubicin, 3H-thymidine incorporation. The note with it: increasing concentrations of Dox. On the procedure:
To test whether the anti-proliferative effect of SAH-BCL9B could synergize with other agents commonly used to treat MM or CRC, combination treatment studies were conducted. Indeed, the cytotoxic effects of 5-fluorouracil on CRC cells and of doxorubicin on MM cells were enhanced by SAH-BCL9B, but not by vehicle or the mutant peptide. See results in FIG. 21.
For orientation: Uptake of a labelled nucleoside into DNA is a usual measure of proliferation.

The record followed here is patent US12534501B2, “Targeting deregulated Wnt signaling in cancer using stabilized alpha-helices of BCL-9” (Dana-Farber Cancer Institute, Inc., priority 2011, dated 2026).

Each structure is given as a SMILES string. Numbered stars: 1 amine (or outer) side, 2 acyl side, 3 side chain; on linkers, the order of the positions; unused ones are H or OH. Bridge positions count the residues as written; N and C are the ends. Square brackets hold non-standard residues; d marks the D form. Peptide text beside a SMILES is read from it. ξ: configuration not given here. ξαMeNle(6-ylidene) = CC(CCCC=[*:3])(N[*:1])C(=O)[*:2]; Nle = CCCC[C@H](N)C(=O)O

Regarding `CCCC[C@H](NC(=O)[C@H](CCCNC(=N)N)NC(=O)[C@H](CCC(N)=O)NC(=O)[C@@H](NC(=O)C1(C)CCCC=CCCCC(C)(NC(=O)[C@H](CC(C)C)NC(=O)[C@H](CO)NC(=O)[C@H](CCCNC(=N)N)NC(=O)[C@H](CCC(=O)O)NC(=O)[C@H](CCCNC(=N)N)NC(=O)[C@H](Cc2c[nH]cn2)NC(=O)[C@H](CCC(=O)O)NC(=O)[C@H](CC(C)C)NC(=O)[C@H](CCC(N)=O)NC(=O)[C@H](CCC(=O)O)NC(=O)[C@H](CCC(N)=O)NC(=O)[C@H](CO)NC(=O)[C@H](CC(C)C)NC(C)=O)C(=O)N[C@@H]([C@@H](C)O)C(=O)N[C@@H](CC(C)C)C(=O)N[C@@H](CCCNC(=N)N)C(=O)N1)[C@@H](C)CC)C(=O)N[C@@H](CC(C)C)C(=O)N[C@@H](Cc1ccccc1)C(N)=O` (stereo partly shown) [SAH-BCL9B] (Ac-LSQEQLEHRERSL[ξαMeNle(6-ylidene)]TLR[ξαMeNle(6-ylidene)]IQR[Nle]LF-NH2; staple 14-18), in assay [1], the “mRNA levels of VEGF, c-MYC, LGR5, LEF1, and AXIN2” value is listed as “dose-responsively reduced”. The proliferation result in the assay with Colo320 cells and in the assay on MM1S cells [2] was “reduced the proliferation” each time. The “enhancement of anti-tumor activity of doxorubicin” value with MM1S cells [3] is on record as “significantly enhanced the anti-tumor activity”.
